How the values were obtained:
[1] = tested on: CD19×CD3 bispecific antibody construct; experiment: Preservative compatibility, percent HMW species by SEC-HPLC at pH 4; type: physicochemical; details: CD19×CD3 bispecific antibody construct 0.8 mg/mL, 10 mM glutamate pH 4.0, 9% sucrose, 0.01% polysorbate 80; preservative conc. of Table 4; 25° C., 14 days
Procedure: In order to investigate the compatibility of known preservatives with a representative bispecific antibody construct according to the present invention, CD19×CD3 bispecific antibody construct was formulated in the presence of respective known preservatives with parameters as set out in Table 4.
The chosen preservative concentrations reflected standard concentrations employed in the art. The respective formulations were stored at 25° C. for 14 days and examined on day 0, 1, 3, 7 and 14 by size exclusion chromatography (SEC-HPLC).

[2] = Frozen stability at −20° C. over 4 weeks, HMW species (FIG. 9, 10); type: physicochemical; details: DLL3×CD3, pH 4
[3] = tested on: CD19×CD3 bispecific antibody constructs; experiment: Denaturation assay (guanidinium chloride) with fluorescence detection; type: physicochemical; details: 2.5 hours at 25° C., pH 7; excitation 280 nm, emission 300 to 400 nm
Procedure: FIG. 4: Denaturation diagram of CD19×CD3 bispecific antibody constructs at a concentration of 1 mg/ml in presence or absence of preservative benzyl alcohol as determined by fluorescence spectrometry […].
Improved stability of a representative bispecific antibody construct of the present invention conferred by a preservative such as benzyl alcohol was further examined by a denaturation assay using fluorescence as detection means. Experimental conditions comprised guanidinium chloride as denaturant which concentration was plotted on the x-axis (see FIG. 4). Incubation time was 2.5 hours at 25° C. at near-physiologic pH 7. Fluorescence excitation was set to 280 nm and the emission scan was run from 300 to 400 nm. The percentile denaturated fraction was calculated from the fluoresces assay as standard in the art. The result can be seen in FIG. 4. The grey curve represents the formulation comprising benzyl alcohol, the black curve the formulation without preservative. […] This means that it takes more denaturant to unfold this region, i.e. the CD3 domain, which translates into improved stability conferred by the preservative.

[4] = tested on: Staphylococcus aureus (ATCC 6538); experiment: Microbial challenge study in IV bags; type: cell-based; details: 20-25° C.
Procedure: (§1) This example was a microbial challenge study in support of CD19×CD3 bispecific antibody construct drug product (DP) administered via an intravenous (IV) bag. The study was performed to evaluate the ability of different concentrations (0.5%-0.74%) of benzyl alcohol (BeOH) to reduce or eliminate microbial growth in IV bags holding blinatumomab infusion solution containing benzyl alcohol, CD19×CD3 bispecific antibody construct DP, and intravenous solution stabilizer (IVSS) kept at 20-25° C. for up to 14 days.
(§2) The study was carried out to evaluate the growth of six different microorganisms in IV bags filled with 109 mL of CD19×CD3 bispecific antibody construct infusion solution containing benzyl alcohol (BeOH, at a final concentration of 0.0%, 0.5%, 0.6% or 0.74%), CD19×CD3 bispecific antibody construct DP, and IVSS. The prepared IV bags were held at 20-25° C. for up to 14 days.
(§3) The bacteria and yeast selected for the study are representative of known human pathogens commonly isolated from nosocomial infections. These microorganisms include Candida albicans (ATCC 10231), Enterobacter cloacae (ATCC 13047), Escherichia coli (ATCC 8739), Micrococcus luteus (ATCC 4698), Pseudomonas aeruginosa (ATCC 9027), and Staphylococcus aureus (ATCC 6538).
(§4) Test Articles: The test articles assessed in the study were blinatumomab infusion solution filled in IV bags containing 1.91 μg/mL conc. blinatumomab in a total volume of 109 mL/bag. The solution was made up by the addition of 2.2 mL IVSS, 16.8 mL of pooled reconstituted blinatumomab DP (210 μg), and a combined total volume of 90 mL of saline solution and saline solution with 0.9% benzyl alcohol (basaline). The four different levels of BeOH (0.0%, 0.5%, 0.6% and 0.74%) assessed in the study were achieved by adding different amounts of saline and basaline. For example, the bag with 0.0% BeOH (positive control) was prepared by adding 90 mL of saline, while the bag with 0.6% BeOH was prepared by adding 18 mL saline and 72 mL 0.9% bsaline, to the 2.2 mL IVSS and 16.8 mL blinatumomab DP. Refer to Appendix A for more details. Note that the illustration for 0.0% BeOH positive control in FIG. 1 (Schematic of IV Bag Preparation) of Appendix A of this report and in the same illustration in FIG. 4 of Appendix D inadvertently stated the final BeOH concentration to be 0.5%, instead of 0.0%. This is a typographic error and has no impact on the study outcome.
(§5) A total of 24 CD19×CD3 bispecific antibody construct infusion solution filled IV bags were assessed to evaluate the effect of four levels of benzyl alcohol on the aforementioned six different microorganisms (6×4=24). An approximate 1 mL of inoculum containing <1×10^4 CFU microbes was inoculated through the injection port into each bag that yielded an initial microbial load at ˜1×10^2 CFU/mL. After inoculation, the sampling port on the bag was cleaned with sterile IPA and the bag was mixed briefly and then incubated at 20-25° C.
(§6) Sampling and titration procedures: At each time point of 0-hour, 4-day, 8-day, 10-day, 12-day and 14 day, a 3 mL aliquot was collected from each assessed bag and titrated.
(§7) Sample titration was performed by membrane filtration in duplicate of 1 mL aliquots for each timed sample. Additional dilutions were performed to obtain countable results (<300 CFU/plate).

[5] = tested on: Escherichia coli (ATCC 8739); experiment: Microbial challenge study in IV bags; type: cell-based; details: 20-25° C.
Procedure: as §1, §2, §3, §4, §5, §6, §7

[6] = tested on: Enterobacter cloacae (ATCC 13047); experiment: Microbial challenge study in IV bags; type: cell-based; details: 20-25° C.
Procedure: as §1, §2, §3, §4, §5, §6, §7

[7] = tested on: Candida albicans (ATCC 10231); experiment: Microbial challenge study in IV bags; type: cell-based; details: all three levels of BeOH (0.5%, 0.6%, 0.74%) in blinatumomab infusion solution; 20-25° C.
Procedure: as §1, §2, §3, §4, §5, §6, §7

[8] = tested on: Pseudomonas aeruginosa (ATCC 9027); experiment: Microbial challenge study in IV bags; type: cell-based; details: 20-25° C.
Procedure: as §1, §2, §3, §4, §5, §6, §7

[9] = tested on: Micrococcus luteus (ATCC 4698); experiment: Microbial challenge study in IV bags; type: cell-based; details: 20-25° C.
Procedure: as §1, §2, §3, §4, §5, §6, §7

[10] = tested on: CDR-H3 region (YISYW) of anti-CD3 domain; experiment: Hydrogen-deuterium exchange (HDX) mass spectrometry, effects of citrate and benzyl alcohol; type: physicochemical; details: addition to Tris-phosphate pH 6.0, 50 mM citrate, 0.9% benzyl alcohol
Excerpt: Hydrogen-deuterium exchange (HDX) is a chemical reaction in which a covalently bonded hydrogen atom is replaced by a deuterium atom, or vice versa. It can be applied most easily to exchangeable protons and deuterons, where such a transformation occurs in the presence of a suitable deuterium source, without any catalyst. The method gives information about the solvent accessibility of various parts of the molecule, and thus the tertiary structure of the protein.
Model anti-FAPα domain, isolated anti-CD3 domain (I2C, as typically used throughout all example bispecific antibody constructs), CD33×CD3 bispecific antibody construct and EGFRvIII×CD3 bispecific antibody construct were examined. For FAPα, anti-CD3 domain, and CD33×CD3 bispecific antibody construct, the experimental procedure was same. Firstly, the protein samples were dialyzed into Tris-phosphate buffer (35 mM Tris, 17.5 mM phosphate, pH 6.0) and (35 mM Tris, 17.5 mM phosphate, 50 mM citrate, pH 6.0), respectively. The protein concentration was adjusted to 0.3 mg/mL after dialysis. […] Thirdly, the HDX reaction was quenched after 10s, 1 min, 10 min, 1 hr, 4 hr, and 12 hr, and then the quenched protein samples were analyzed by mass spectrometry. […] Thirdly, the HDX reaction was quenched after 10s, 10 min, 2 hr, 8 hr, 16 hr, 24 hr, and then the quenched protein samples were analyzed by mass spectrometry. […]

[11] = 0.5% or 0.6% BeOH in blinatumomab infusion solution
[12] = 0.74% BeOH in blinatumomab infusion solution
[13] = 0.5%, 0.6% and 0.74% BeOH in blinatumomab infusion solution, inoculum 100 CFU/mL
[14] = all three assessed concentrations (0.5%, 0.6%, 0.74%), up to 14 days

With `C[CH2][Hg][S]c1ccccc1C(=O)[O-].[Na+]` [Thimerosal, thimerosal] the “percent high molecular weight (HMW) species over time” value (“percent high molecular weight” for short) [1] was “slight increase in HWM over time”.
For `OCc1ccccc1` [benzyl alcohol], the “benzyl alcohol concentration at which stabilizing effect on frozen stability is best” value [2] was “above 0.1%”, the “denaturation curve (denaturated fraction vs guanidinium chloride) with benzyl alcohol versus without preservative” value [3] was “shift to the right in the bottom portion of the curve” and the “day on which challenged S. aureus inoculum became unrecoverable” value [4, 11] was 8 days. For the same compound, the “day on which challenged S. aureus inoculum became unrecoverable” value [4, 12] was 4 days, the “day from which no E. coli was recoverable” value [5, 13] was 10 days and the “growth of E. coli” value [5, 14] was “completely inhibited”. For the same compound, the “day from which no E. cloacae was recoverable” value [6, 13] was 10 days, the “growth of E. cloacae” value [6, 14] was “completely inhibited” and the “day on which challenged C. albicans was unrecoverable” value [7] was 8 days. The “day from which no P. aeruginosa was recoverable” value [8, 13] was 4 days, the “growth of P. aeruginosa” value [8, 14] was “completely inhibited” and the “day on which challenged M. luteus was unrecoverable” value [9, 11] was 14 days. For the same compound, the “day on which challenged M. luteus was unrecoverable” value [9, 12] was 8 days and the “conformational dynamics of the region of residues 366-370 (YISYW) versus formulation of Tris-phosphate” value [10] was “increases the conformational dynamics of this region”.
In the case of `O=C(O)CC(O)(CC(=O)O)C(=O)O` [citrate], the “conformational dynamics of the region of residues 366-370 (YISYW) versus formulation of Tris-phosphate” value [10] is reported as “reduces the conformational dynamics of this region”.
In the case of `COC(=O)c1ccc(O)cc1` [methylparabene, methylparaben], the “percent high molecular weight” value [1] is reported as “decrease in the percent high molecular weight (HMW) species over time”.
With `Oc1ccccc1` [phenol] the “percent high molecular weight” value [1] was “HMW values overall remain constant”.

Reference: patent US11918650B2, “Pharmaceutical composition comprising bispecific antibody constructs for improved storage and administration” (AMGEN INC., priority 2017, dated 2024)
